Test results taken from the NIST ThermoML archive (doi:10.1021/je4004806).

Test: xn = mol fraction of the nth substance listed
Settings: 101 kPa, Liquid; for viscosity: Capillary tube (Ostwald / Ubbelohde) method; for mass density: Vibrating tube method

CCCCCCCC [octane] + CCCO
Settings | mass density [kg/m3] | viscosity [mPa·s]
293.15 K, x1 = 0.0997 | 782.97 | 1.692
293.15 K, x1 = 0.1999 | 766.37 | 1.356
293.15 K, x1 = 0.3 | 752.87 | 1.092
293.15 K, x1 = 0.3997 | 741.8 | 0.934
293.15 K, x1 = 0.4993 | 732.43 | 0.798
293.15 K, x1 = 0.602 | 724.19 | 0.703
293.15 K, x1 = 0.6991 | 717.48 | 0.632
293.15 K, x1 = 0.7994 | 711.55 | 0.587
293.15 K, x1 = 0.9 | 706.48 | 0.556
293.15 K, x1 = 1 | 702.54 | 0.545
298.15 K, x1 = 0.0997 | 778.9 | 1.508
298.15 K, x1 = 0.1999 | 762.25 | 1.216
298.15 K, x1 = 0.3 | 748.72 | 0.991
298.15 K, x1 = 0.3997 | 737.62 | 0.854
298.15 K, x1 = 0.4993 | 728.24 | 0.734
298.15 K, x1 = 0.602 | 719.99 | 0.65
298.15 K, x1 = 0.6991 | 713.3 | 0.589
298.15 K, x1 = 0.7994 | 707.39 | 0.55
298.15 K, x1 = 0.9 | 702.35 | 0.523
298.15 K, x1 = 1 | 698.49 | 0.513
303.15 K, x1 = 0.0997 | 774.8 | 1.352
303.15 K, x1 = 0.1999 | 758.1 | 1.097
303.15 K, x1 = 0.3 | 744.53 | 0.899
303.15 K, x1 = 0.3997 | 733.4 | 0.777
303.15 K, x1 = 0.4993 | 724.01 | 0.675
303.15 K, x1 = 0.602 | 715.77 | 0.603
303.15 K, x1 = 0.6991 | 709.09 | 0.55
303.15 K, x1 = 0.7994 | 703.2 | 0.515
303.15 K, x1 = 0.9 | 698.19 | 0.491
303.15 K, x1 = 1 | 694.44 | 0.485
308.15 K, x1 = 0.0997 | 770.67 | 1.211
308.15 K, x1 = 0.1999 | 753.91 | 0.992
308.15 K, x1 = 0.3 | 740.3 | 0.817
308.15 K, x1 = 0.3997 | 729.15 | 0.712
308.15 K, x1 = 0.4993 | 719.75 | 0.623
308.15 K, x1 = 0.602 | 711.51 | 0.56
308.15 K, x1 = 0.6991 | 704.85 | 0.514
308.15 K, x1 = 0.7994 | 698.98 | 0.484
308.15 K, x1 = 0.9 | 694.02 | 0.463
308.15 K, x1 = 1 | 690.37 | 0.459
313.15 K, x1 = 0.0997 | 766.5 | 1.09
313.15 K, x1 = 0.1999 | 749.69 | 0.898
313.15 K, x1 = 0.3 | 736.04 | 0.745
313.15 K, x1 = 0.3997 | 724.85 | 0.653
313.15 K, x1 = 0.4993 | 715.44 | 0.576
313.15 K, x1 = 0.602 | 707.21 | 0.52
313.15 K, x1 = 0.6991 | 700.57 | 0.481
313.15 K, x1 = 0.7994 | 694.73 | 0.455
313.15 K, x1 = 0.9 | 689.81 | 0.436
313.15 K, x1 = 1 | 686.29 | 0.433
318.15 K, x1 = 0.0997 | 762.28 | 0.984
318.15 K, x1 = 0.1999 | 745.41 | 0.817
318.15 K, x1 = 0.3 | 731.72 | 0.68
318.15 K, x1 = 0.3997 | 720.51 | 0.605
318.15 K, x1 = 0.4993 | 711.09 | 0.534
318.15 K, x1 = 0.602 | 702.87 | 0.485
318.15 K, x1 = 0.6991 | 696.25 | 0.451
318.15 K, x1 = 0.7994 | 690.45 | 0.427
318.15 K, x1 = 0.9 | 685.58 | 0.412
318.15 K, x1 = 1 | 682.19 | 0.412
323.15 K, x1 = 0.0997 | 758.02 | 0.89
323.15 K, x1 = 0.1999 | 741.08 | 0.742
323.15 K, x1 = 0.3 | 727.35 | 0.623
323.15 K, x1 = 0.3997 | 716.12 | 0.554
323.15 K, x1 = 0.4993 | 706.7 | 0.496
323.15 K, x1 = 0.602 | 698.49 | 0.452
323.15 K, x1 = 0.6991 | 691.9 | 0.423
323.15 K, x1 = 0.7994 | 686.13 | 0.403
323.15 K, x1 = 0.9 | 681.32 | 0.389
323.15 K, x1 = 1 | 678.08 | 0.392

CCCCCCCC [octane] + CCCCO
Settings | mass density [kg/m3] | viscosity [mPa·s]
293.15 K, x1 = 0.0967 | 792 | 2.243
293.15 K, x1 = 0.1999 | 775.92 | 1.722
293.15 K, x1 = 0.3022 | 761.86 | 1.363
293.15 K, x1 = 0.4064 | 749.45 | 1.078
293.15 K, x1 = 0.4995 | 739.67 | 0.903
293.15 K, x1 = 0.6004 | 730.23 | 0.766
293.15 K, x1 = 0.7002 | 721.95 | 0.672
293.15 K, x1 = 0.7999 | 714.61 | 0.603
293.15 K, x1 = 0.8991 | 708.11 | 0.571
293.15 K, x1 = 1 | 702.54 | 0.545
298.15 K, x1 = 0.0967 | 788.1 | 1.983
298.15 K, x1 = 0.1999 | 771.93 | 1.537
298.15 K, x1 = 0.3022 | 757.83 | 1.223
298.15 K, x1 = 0.4064 | 745.37 | 0.974
298.15 K, x1 = 0.4995 | 735.56 | 0.826
298.15 K, x1 = 0.6004 | 726.12 | 0.709
298.15 K, x1 = 0.7002 | 717.8 | 0.626
298.15 K, x1 = 0.7999 | 710.5 | 0.565
298.15 K, x1 = 0.8991 | 704 | 0.537
298.15 K, x1 = 1 | 698.49 | 0.513
303.15 K, x1 = 0.0967 | 784.17 | 1.762
303.15 K, x1 = 0.1999 | 767.92 | 1.375
303.15 K, x1 = 0.3022 | 753.77 | 1.102
303.15 K, x1 = 0.4064 | 741.27 | 0.885
303.15 K, x1 = 0.4995 | 731.43 | 0.758
303.15 K, x1 = 0.6004 | 721.97 | 0.655
303.15 K, x1 = 0.7002 | 713.65 | 0.584
303.15 K, x1 = 0.7999 | 706.35 | 0.529
303.15 K, x1 = 0.8991 | 699.87 | 0.503
303.15 K, x1 = 1 | 694.44 | 0.485
308.15 K, x1 = 0.0967 | 780.22 | 1.577
308.15 K, x1 = 0.1999 | 763.9 | 1.232
308.15 K, x1 = 0.3022 | 749.68 | 0.996
308.15 K, x1 = 0.4064 | 737.13 | 0.809
308.15 K, x1 = 0.4995 | 727.27 | 0.698
308.15 K, x1 = 0.6004 | 717.79 | 0.609
308.15 K, x1 = 0.7002 | 709.47 | 0.546
308.15 K, x1 = 0.7999 | 702.18 | 0.497
308.15 K, x1 = 0.8991 | 695.72 | 0.473
308.15 K, x1 = 1 | 690.37 | 0.459
313.15 K, x1 = 0.0967 | 776.24 | 1.4
313.15 K, x1 = 0.1999 | 759.83 | 1.11
313.15 K, x1 = 0.3022 | 745.56 | 0.904
313.15 K, x1 = 0.4064 | 732.96 | 0.74
313.15 K, x1 = 0.4995 | 723.07 | 0.644
313.15 K, x1 = 0.6004 | 713.59 | 0.566
313.15 K, x1 = 0.7002 | 705.27 | 0.511
313.15 K, x1 = 0.7999 | 697.97 | 0.467
313.15 K, x1 = 0.8991 | 691.54 | 0.447
313.15 K, x1 = 1 | 686.29 | 0.433
318.15 K, x1 = 0.0967 | 772.22 | 1.258
318.15 K, x1 = 0.1999 | 755.73 | 1
318.15 K, x1 = 0.3022 | 741.39 | 0.821
318.15 K, x1 = 0.4064 | 728.75 | 0.679
318.15 K, x1 = 0.4995 | 718.84 | 0.595
318.15 K, x1 = 0.6004 | 709.35 | 0.527
318.15 K, x1 = 0.7002 | 701.03 | 0.479
318.15 K, x1 = 0.7999 | 693.72 | 0.44
318.15 K, x1 = 0.8991 | 687.33 | 0.42
318.15 K, x1 = 1 | 682.19 | 0.412
323.15 K, x1 = 0.0967 | 768.16 | 1.134
323.15 K, x1 = 0.1999 | 751.58 | 0.907
323.15 K, x1 = 0.3022 | 737.18 | 0.751
323.15 K, x1 = 0.4064 | 724.5 | 0.625
323.15 K, x1 = 0.4995 | 714.57 | 0.552
323.15 K, x1 = 0.6004 | 705.07 | 0.493
323.15 K, x1 = 0.7002 | 696.75 | 0.45
323.15 K, x1 = 0.7999 | 689.48 | 0.415
323.15 K, x1 = 0.8991 | 683.1 | 0.397
323.15 K, x1 = 1 | 678.08 | 0.392
